Structures are written as SMILES.

Series [1] relates to 5-LO mRNA. Briefly: Downregulation of 5-LO gene expression (5-LO mRNA by real-time RT-PCR) in acetylated-LDL-stimulated macrophage cell lines. It counts as cell-based, human and mouse. To be noted: macrophage cell line (THP-1 or J774, not specified). The procedure:
A panel of LXR or PPAR modulator compounds was tested to determine whether they could downregulate 5-LO gene expression. The compounds were individually tested to determine whether they could downregulate 5-LO gene expression in human and mouse macrophage cell lines.
Preparation of Acetylated LDL: LDL was dialyzed with 500 mL phosphate buffered saline (PBS) three times. 2.5 mL of dialyzed LDL was mixed with 2.5 mL of saturated sodium acetate with continuous stirring in an ice-water bath. Acetic anhydride was added in 7 times 7.5 μL over a period of 1 hour with continuous stirring. Then, the mixture was stirred for an additional 1 hour. The solution was dialyzed against 500 mL PBS containing 0.3 mM EDTA three times. The protein concentration is determined using Bio-Rad DC protein assay kit.
Cell Culture and Compound Treatment: Human THP-1 cells were maintained in RPMI 1640 medium containing 10% Fetal Bovine Serum (FBS), 25 mM Hepes buffer, […] Genamicin, 1 mM Sodium pyruvate, and 50 μM β-mercaptoethanol. THP-1 cells were differentiated with 75 ng/mL phorbal 12,13-dibutyrate (PDBu) three days prior to assay to induce differentiation of the cells into adherent macrophages. Cells were seeded in 12 well plates in 1 mL of complete media. Each well contained 400,000 cells. The cells were stimulated with RPMI 1640 medium (1% FBS) containing 100 μg/mL acetylated-LDL in presence of phorbol ester for 48 hours, including several wells without acetylated-LDL treatment as a control. The medium was then changed to RPMI 1640 medium without FBS, plus the test compounds with phorbol ester for 48 hours. Control cells were not incubated with test compounds. The cells were incubated at 37° C. in a humidified CO2 incubator. The cells were then ready for RNA extraction.
Murine J774 cells were maintained in DMEM (high glucose) containing 10% FBS, 100 units/mL penicillin, and 100 μg/mL streptomycin. Six hours prior to assay, J774 cells were seeded into 96-well plates in 150 μL complete media. Each well contains 75,000 cells. The cells were stimulated with DMEM-high glucose (1% FBS) containing 100 μg/mL acetylated-LDL for 24 to 48 hours, including several wells without acetylated-LDL treatment as a control. The media was then changed to DMEM-high glucose (without FBS) plus the test compounds for 24 to 48 hours. Compounds were dosed in DMSO vehicle and control cells were treated with vehicle alone. The cells were incubated at 37° C. in a humidified CO2 incubator. The cells were then ready for RNA isolation.
RNA analysis: Total RNA was isolated from the THP-1 cells by using a QIAGEN RNeasy Mini Kit. Real-time quantitative RT-PCR assays were performed using an Applied Biosystems 7900 sequence detector. Each amplification mixture (50 μL) contained 50-100 ng of total RNA, 200 nM forward primer, 200 nM reverse primer, and 200 nM dual-labeled fluorogenic probe. The RT-PCR reagent is from QIAGEN (QuantiTect Probe RT-PCR kit). The RT-PCR thermocycling parameters were 48° C. for 30 minutes, 95° C. for 10 minutes, and 40 cycles at 95° C. for 15 seconds and 55° C. for 1 minute. The samples, no-RT controls, and serially diluted RNA standards were analyzed in parallel. The 5-LO target gene was analyzed and normalized for human glyceraldehyde-3-phosphate dehydrogenase (GAPDH) expression using probe and primers from predeveloped assays for GAPDH (Applied Biosystems). Quantitative analysis was performed using the threshold procedure, and relative amounts were calculated from the standard curve.
Total RNA from the J774 cells was isolated by using the ABI 6100 RNA isolation system for 96-well plates (the THP-1 cells can also be cultured and tested in 96-well plates). Real-time quantitative RT-PCR assays were performed using an Applied Biosystems 7900 sequence detector. Each amplification mixture (50 μL) contained 50-100 ng of total RNA, 200 nM forward primer, 200 nM reverse primer, and 250 nM dual-labeled fluorogenic probe.
(Quantitative PCR measures a nucleic acid by following its amplification.)

As a reminder, the inhibition is how much of the control response was suppressed. What is called melting point is the temperature of the solid-liquid transition. `O=C(O)Cc1ccc(COc2cccc(-c3c(-c4ccccc4)cnc4c(C(F)(F)F)cccc34)c2)cc1` [Compound I-3, {4-[3-(3-Phenyl-8-trifluoromethyl-quinolin-4-yl)-phenoxymethyl]-phenyl}-acetic acid] came in with a melting point of 122 °C. In addition, the inhibition at 0.1 µM in series [1] (0.1 uM compound) turned out to be 88%. This compound yielded an inhibition at 1 µM in series [1] (1.0 uM compound) of 89%.

(Values after US20070093524A1, “5-Lipoxygenase modulators” (Wyeth, priority 2005, published 2007).)
